Activity calls are given as the source filed them. The rule behind the calls is not given here.
How the values were obtained:
[1] = target: T1, Casein kinase I isoform delta (Homo sapiens, UniProt P48730); assay: Inhibition of CK1delta (unknown origin) using Light-TopoIla(Thr1342) peptide as substrate incubated for 10 mins in presence of ATP by TR-FRET assay
Target sequence in this assay (P48730 whole entry, canonical isoform): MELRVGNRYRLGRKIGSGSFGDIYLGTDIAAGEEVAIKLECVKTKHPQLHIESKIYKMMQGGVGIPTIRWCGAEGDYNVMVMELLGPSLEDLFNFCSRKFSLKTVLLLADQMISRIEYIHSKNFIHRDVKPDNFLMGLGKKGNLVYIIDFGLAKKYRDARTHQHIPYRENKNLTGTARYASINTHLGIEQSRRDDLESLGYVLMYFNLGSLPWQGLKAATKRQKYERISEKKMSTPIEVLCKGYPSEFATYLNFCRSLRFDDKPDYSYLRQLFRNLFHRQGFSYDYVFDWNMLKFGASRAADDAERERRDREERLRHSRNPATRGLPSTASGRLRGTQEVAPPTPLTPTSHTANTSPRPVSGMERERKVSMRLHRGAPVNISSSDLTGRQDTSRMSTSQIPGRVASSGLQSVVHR

[2] = target: T1, Casein kinase I isoform delta; assay: Inhibition of N-terminal His-tagged CK1delta (unknown origin) expressed in Escherichia coli using Light-TopoIla(Thr1342) peptide as substrate at 10 uM incubated for 10 mins in presence of ATP by TR-FRET assay
Target sequence in this assay (P48730 whole entry, looked up, canonical isoform): as the sequence (P48730 whole entry, canonical isoform) above

5637 = assay: Antiproliferative activity against human 5637 cells assessed as reduction in cell proliferation incubated for 72 hrs by Cell Titer Glo assay; format: functional, cell-based; conditions: Homo sapiens, 5637, 72 h
UMUC3 = assay: Antiproliferative activity against human UMUC3 cells assessed as reduction in cell proliferation incubated for 72 hrs by Cell Titer Glo assay; format: functional, cell-based; conditions: UMUC3, 72 h
T-24 = assay: Antiproliferative activity against human T24 cells assessed as reduction in cell proliferation incubated for 72 hrs by Cell Titer Glo assay; format: functional, cell-based; conditions: T-24, 72 h
U2OS = assay: Antiproliferative activity against human U2OS cells assessed as reduction in cell proliferation incubated for 72 hrs by Cell Titer Glo assay; format: functional, cell-based
[3] = target: Casein kinase I isoform epsilon (Homo sapiens, UniProt P49674); assay: Inhibition of CK1epsilon (unknown origin)
[4] = target: T1, Casein kinase I isoform delta; assay: Inhibition of CK1delta (unknown origin)
Target sequence in this assay (P48730 whole entry, canonical isoform): as above

Casein kinase I isoform epsilon, sequence (P49674 whole entry, canonical isoform): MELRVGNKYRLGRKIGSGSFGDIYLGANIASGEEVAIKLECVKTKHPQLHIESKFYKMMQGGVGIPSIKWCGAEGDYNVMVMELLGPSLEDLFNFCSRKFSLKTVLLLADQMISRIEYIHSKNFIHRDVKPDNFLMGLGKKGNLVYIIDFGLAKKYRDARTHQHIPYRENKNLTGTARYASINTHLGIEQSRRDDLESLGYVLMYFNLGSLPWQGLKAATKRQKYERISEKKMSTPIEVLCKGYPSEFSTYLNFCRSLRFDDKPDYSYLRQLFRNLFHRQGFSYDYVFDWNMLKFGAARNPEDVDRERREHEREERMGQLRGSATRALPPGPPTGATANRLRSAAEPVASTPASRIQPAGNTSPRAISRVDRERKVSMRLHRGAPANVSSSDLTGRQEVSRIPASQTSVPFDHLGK

For `Fc1ccc2[nH]c(CNc3nc(N4CCOCC4)nc4c3ncn4Cc3ccc4ccccc4c3)nc2c1F`, the IC50 [1] was greater than 10000 nM.
For `Fc1cc(F)cc(CCn2cnc3c(NCc4nc5c(F)c(F)ccc5[nH]4)nc(N4CCOCC4)nc32)c1`, the IC50 [1] was greater than 10000 nM.
`CCOc1ccc(-n2cnc3c(NCc4nc5c(F)c(F)ccc5[nH]4)nc(N4CCOCC4)nc32)cc1` showed an IC50 [1] greater than 10000 nM.
`Fc1cccc(Cn2cnc3c(NCc4nc5c(F)c(F)ccc5[nH]4)nc(N4CCOCC4)nc32)c1` showed an IC50 [1] greater than 10000 nM.
With `Fc1ccc2[nH]c(CNc3nc(N4CCOCC4)nc4c3ncn4CCc3cccc(Cl)c3)nc2c1F` the inhibition [2] was “inactive” and the IC50 [1] was greater than 10000 nM.
`Fc1ccc2[nH]c(CNc3nc(N4CCOCC4)nc4c3ncn4-c3ccc4ncsc4c3)nc2c1F` was tested, and the IC50 [1] was greater than 10000 nM.
In the case of `Fc1cccc(CCn2cnc3c(NCc4nc5c(F)c(F)ccc5[nH]4)nc(N4CCOCC4)nc32)c1`, the IC50 [1] is reported as greater than 10000 nM.
For `Fc1ccc2[nH]c(CNc3nc(N4CCOCC4)nc4c3ncn4Cc3cccc4ccccc34)nc2c1F`, the IC50 [1] was greater than 10000 nM.
Compound `Fc1ccc2[nH]c(CNc3nc(N4CCOCC4)nc4c3ncn4CCc3cccc(Br)c3)nc2c1F` has an IC50 [1] greater than 10000 nM.
For `CC(C)Oc1ccc(-n2cnc3c(NCc4nc5c(F)c(F)ccc5[nH]4)nc(N4CCOCC4)nc32)cc1`, the inhibition [2] was “inactive” and the IC50 [1] was greater than 10000 nM.
`N#Cc1ccc(CCn2cnc3c(NCc4nc5c(F)c(F)ccc5[nH]4)nc(N4CCOCC4)nc32)cc1` was tested, and the IC50 [1] was greater than 10000 nM.
In the case of `Fc1ccc2[nH]c(CNc3nc(N4CCOCC4)nc4c3ncn4CCc3ccc(C(F)(F)F)cc3)nc2c1F`, the inhibition [2] is reported as “inactive” and the IC50 [1] is reported as greater than 10000 nM.
Compound `COc1ccc(-n2cnc3c(NCc4nc5c(F)c(F)ccc5[nH]4)nc(N4CCOCC4)nc32)cc1` has an EC50 5637 of 106 nM, an EC50 (UMUC3) of 5780 nM and an EC50 (T-24) of 95 nM. The EC50 (U2OS) was 164 nM.
`Fc1ccc2[nH]c(CNc3nc(N4CCOCC4)nc4c3ncn4CCc3cccc(C(F)(F)F)c3)nc2c1F` showed an IC50 [1] greater than 10000 nM.
`Fc1ccc2[nH]c(CNc3nc(N4CCOCC4)nc4c3ncn4-c3ccc4c(c3)OCCO4)nc2c1F` was tested, and the IC50 [1] was greater than 10000 nM.
`O=C(Nc1nc2cc(Cl)c(F)cc2[nH]1)c1coc(NC(=O)c2ccccc2OC(F)(F)F)n1` showed an IC50 [3] of 33 nM and an IC50 [4] of 42 nM.
Compound `Fc1cccc(-n2cnc3c(NCc4nc5c(F)c(F)ccc5[nH]4)nc(N4CCOCC4)nc32)c1` has an EC50 5637 of 6 nM, an EC50 (UMUC3) of 26 nM and an EC50 (T-24) of 8 nM. It also gave an EC50 (U2OS) of 9 nM.
Compound `Fc1ccc2[nH]c(CNc3nc(N4CCOCC4)nc4c3ncn4-c3ccc4ccccc4c3)nc2c1F` has an EC50 5637 of 314 nM, an EC50 (UMUC3) of 540 nM and an EC50 (T-24) of 265 nM. For the same compound, the IC50 [1] was greater than 10000 nM and the EC50 (U2OS) was 373 nM.

Source: ChEMBL document CHEMBL5338789, “Structure-Based Development of Isoform-Selective Inhibitors of Casein Kinase 1ε vs Casein Kinase 1δ” (J Med Chem, 2023)
